Measured values as given in ChEMBL document CHEMBL5625190, “Novel fused imidazotriazines acting as promising top. II inhibitors and apoptotic inducers with greater selectivity against head and neck tumors: Design, synthesis, and biological assessments” (Eur J Med Chem, 2023).
In brackets after ≈: the same amount, converted by molar mass.

Assays:
HNO 97 cell line [1] = assay: Growth inhibition of human HNO 97 cell line assessed as reduction in cell viability at 100 ug/ml by SRB colorimetric assay relative to control; type: functional; details: read-out: GI
MDA-MB-231 [2] = assay: Growth inhibition of human MDA-MB-231 cells assessed as reduction in cell viability at 100 ug/ml by SRB colorimetric assay relative to control; type: functional; details: read-out: GI
HepG2 [3] = assay: Growth inhibition of human HepG2 cells assessed as reduction in cell viability at 100 ug/ml by SRB colorimetric assay relative to control; type: functional; details: read-out: GI
Huh-7 = assay: Growth inhibition of human Huh-7 cells assessed as reduction in cell viability at 100 ug/ml by SRB colorimetric assay relative to control; type: functional; details: read-out: GI
PC-3 = assay: Growth inhibition of human PC-3 cells assessed as reduction in cell viability at 100 ug/ml by SRB colorimetric assay relative to control; type: functional; details: read-out: GI
A-375 = assay: Growth inhibition of human A-375 cells assessed as reduction in cell viability at 100 ug/ml by SRB colorimetric assay relative to control; type: functional; details: read-out: GI
MCF7 = assay: Growth inhibition of human MCF7 cells assessed as reduction in cell viability at 100 ug/ml by SRB colorimetric assay relative to control; type: functional; details: read-out: GI
HCT-116 = assay: Growth inhibition of human HCT-116 cells assessed as reduction in cell viability at 100 ug/ml by SRB colorimetric assay relative to control; type: functional; details: read-out: GI
Caco-2 = assay: Growth inhibition of human Caco-2 cells assessed as reduction in cell viability at 100 ug/ml by SRB colorimetric assay relative to control; type: functional; details: read-out: GI
MG-63 = assay: Growth inhibition of human MG-63 cells assessed as reduction in cell viability at 100 ug/ml by SRB colorimetric assay relative to control; type: functional; details: read-out: GI
NCI-H460 = assay: Growth inhibition of human NCI-H460 cells assessed as reduction in cell viability at 100 ug/ml by SRB colorimetric assay relative to control; type: functional; details: read-out: GI
A549 = assay: Growth inhibition of human A549 cells assessed as reduction in cell viability at 100 ug/ml by SRB colorimetric assay relative to control; type: functional; details: read-out: GI
BT-474 = assay: Growth inhibition of human BT-474 cells assessed as reduction in cell viability at 100 ug/ml by SRB colorimetric assay relative to control; type: functional; details: read-out: GI
[4] = Growth inhibition of human Oral epithelial cell assessed as reduction in cell viability at 100 ug/ml by SRB colorimetric assay relative to control; type: toxicity, cell-based; details: oral epithelial cells, at 100 µg/mL, read-out: GI
HNO 97 cell line [5] = assay: Growth inhibition of human HNO 97 cell line assessed as reduction in cell viability by SRB colorimetric assay; type: functional, cell-based
MDA-MB-231 [6] = assay: Growth inhibition of human MDA-MB-231 cell line assessed as reduction in cell viability by SRB colorimetric assay; type: functional, cell-based
HepG2 [7] = assay: Growth inhibition of human HepG2 cell line assessed as reduction in cell viability by SRB colorimetric assay; type: functional, cell-based
[8] = target: DNA topoisomerase 2-beta (Homo sapiens) (UniProt Q02880); assay: Inhibition of human DNA topoisomerase 2-beta by ELISA method relative to control; details: concentration not given here
Sequence of DNA topoisomerase 2-beta (Homo sapiens) (Q02880 whole entry): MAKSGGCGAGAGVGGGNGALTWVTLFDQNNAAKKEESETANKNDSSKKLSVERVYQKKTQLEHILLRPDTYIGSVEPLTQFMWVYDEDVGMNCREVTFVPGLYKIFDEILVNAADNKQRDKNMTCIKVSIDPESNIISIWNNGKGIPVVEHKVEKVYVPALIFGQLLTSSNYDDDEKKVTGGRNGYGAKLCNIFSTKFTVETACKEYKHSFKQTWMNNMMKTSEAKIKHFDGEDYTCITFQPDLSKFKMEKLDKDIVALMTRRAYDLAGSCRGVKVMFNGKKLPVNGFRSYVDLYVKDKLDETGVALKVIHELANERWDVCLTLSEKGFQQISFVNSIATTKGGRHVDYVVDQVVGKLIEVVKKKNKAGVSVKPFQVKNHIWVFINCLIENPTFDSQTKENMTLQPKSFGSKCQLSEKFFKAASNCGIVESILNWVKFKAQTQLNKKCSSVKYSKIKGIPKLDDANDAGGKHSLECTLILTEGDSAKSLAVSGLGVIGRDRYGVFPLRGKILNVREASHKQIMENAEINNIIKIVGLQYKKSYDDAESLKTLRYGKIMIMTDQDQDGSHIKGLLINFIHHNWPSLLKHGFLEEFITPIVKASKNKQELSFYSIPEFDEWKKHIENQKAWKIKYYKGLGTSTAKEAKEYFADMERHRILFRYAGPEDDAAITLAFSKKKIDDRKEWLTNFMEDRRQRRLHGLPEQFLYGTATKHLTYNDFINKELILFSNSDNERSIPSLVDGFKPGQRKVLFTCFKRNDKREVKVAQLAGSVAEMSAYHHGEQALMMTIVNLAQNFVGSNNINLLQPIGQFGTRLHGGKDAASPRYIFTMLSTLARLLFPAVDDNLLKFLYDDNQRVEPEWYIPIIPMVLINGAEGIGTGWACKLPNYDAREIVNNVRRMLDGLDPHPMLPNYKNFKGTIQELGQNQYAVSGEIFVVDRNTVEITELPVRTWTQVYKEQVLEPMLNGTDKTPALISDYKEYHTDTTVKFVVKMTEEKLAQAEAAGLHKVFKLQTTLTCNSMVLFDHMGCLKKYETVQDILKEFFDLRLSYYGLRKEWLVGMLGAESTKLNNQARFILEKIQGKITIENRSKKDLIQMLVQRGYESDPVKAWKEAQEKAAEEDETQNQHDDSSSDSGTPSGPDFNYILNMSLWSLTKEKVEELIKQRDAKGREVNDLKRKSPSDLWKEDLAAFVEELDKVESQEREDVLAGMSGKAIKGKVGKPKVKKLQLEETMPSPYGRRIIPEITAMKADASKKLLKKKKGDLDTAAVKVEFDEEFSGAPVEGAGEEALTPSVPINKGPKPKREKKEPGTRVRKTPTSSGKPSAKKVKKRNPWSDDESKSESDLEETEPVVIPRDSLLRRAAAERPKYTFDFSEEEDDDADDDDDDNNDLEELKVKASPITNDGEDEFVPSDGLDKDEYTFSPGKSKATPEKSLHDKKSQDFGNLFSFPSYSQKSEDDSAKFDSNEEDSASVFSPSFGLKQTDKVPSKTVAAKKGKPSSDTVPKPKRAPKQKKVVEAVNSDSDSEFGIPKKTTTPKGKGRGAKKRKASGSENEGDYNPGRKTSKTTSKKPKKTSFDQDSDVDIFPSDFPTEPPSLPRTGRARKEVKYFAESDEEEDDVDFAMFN

HNO 97 cell line [9] = assay: Induction of cell cycle arrest in human HNO 97 cell line assessed as increase in cell level at S phase by flow cytometry analysis (reference value: 23.37%); type: functional
HNO 97 cell line [10] = assay: Induction of cell cycle arrest in human HNO 97 cell line assessed as increase in cell level at G2-M phase by flow cytometry analysis (reference value: 0.66%); type: functional
HNO 97 cell line [11] = assay: Induction of apoptosis in human HNO 97 cell line assessed as increase in early apoptotic cells by Annexin-V/PI staining based analysis (reference value: 0.23%); type: functional
HNO 97 cell line [12] = assay: Induction of apoptosis in human HNO 97 cell line assessed as increase in late apoptotic cells by Annexin-V/PI staining based analysis (reference value: 0.12%); type: functional
[13] = Upregulation of p53 expression in human HNO 97 cell line assessed as fold change by sandwich ELISA analysis; type: functional
[14] = Upregulation of BAX expression in human HNO 97 cell line assessed as fold change by sandwich ELISA analysis; type: functional
[15] = Downregulation of IL-6 expression in human HNO 97 cell line assessed as fold change by sandwich ELISA analysis; type: functional
[16] = Downregulation of BCL2 expression in human HNO 97 cell line assessed as fold change by sandwich ELISA analysis; type: functional
HNO 97 cell line [17] = assay: Antioxidant activity against human HNO 97 cell line assessed as increase in GSH level measured after 48 hrs by Ellmans method relative to control; type: functional
HNO 97 cell line [18] = assay: Antioxidant activity against human HNO 97 cell line assessed as MDA level measured after 48 hrs relative to control; type: functional
HNO 97 cell line [19] = assay: Antioxidant activity against human HNO 97 cell line assessed as NO level measured after 48 hrs relative to control; type: functional
[20] = target: T1, DNA topoisomerase 2-alpha (Homo sapiens, UniProt P11388); assay: Inhibition of human DNA topoisomerase 2alpha
T1 sequence (P11388 whole entry): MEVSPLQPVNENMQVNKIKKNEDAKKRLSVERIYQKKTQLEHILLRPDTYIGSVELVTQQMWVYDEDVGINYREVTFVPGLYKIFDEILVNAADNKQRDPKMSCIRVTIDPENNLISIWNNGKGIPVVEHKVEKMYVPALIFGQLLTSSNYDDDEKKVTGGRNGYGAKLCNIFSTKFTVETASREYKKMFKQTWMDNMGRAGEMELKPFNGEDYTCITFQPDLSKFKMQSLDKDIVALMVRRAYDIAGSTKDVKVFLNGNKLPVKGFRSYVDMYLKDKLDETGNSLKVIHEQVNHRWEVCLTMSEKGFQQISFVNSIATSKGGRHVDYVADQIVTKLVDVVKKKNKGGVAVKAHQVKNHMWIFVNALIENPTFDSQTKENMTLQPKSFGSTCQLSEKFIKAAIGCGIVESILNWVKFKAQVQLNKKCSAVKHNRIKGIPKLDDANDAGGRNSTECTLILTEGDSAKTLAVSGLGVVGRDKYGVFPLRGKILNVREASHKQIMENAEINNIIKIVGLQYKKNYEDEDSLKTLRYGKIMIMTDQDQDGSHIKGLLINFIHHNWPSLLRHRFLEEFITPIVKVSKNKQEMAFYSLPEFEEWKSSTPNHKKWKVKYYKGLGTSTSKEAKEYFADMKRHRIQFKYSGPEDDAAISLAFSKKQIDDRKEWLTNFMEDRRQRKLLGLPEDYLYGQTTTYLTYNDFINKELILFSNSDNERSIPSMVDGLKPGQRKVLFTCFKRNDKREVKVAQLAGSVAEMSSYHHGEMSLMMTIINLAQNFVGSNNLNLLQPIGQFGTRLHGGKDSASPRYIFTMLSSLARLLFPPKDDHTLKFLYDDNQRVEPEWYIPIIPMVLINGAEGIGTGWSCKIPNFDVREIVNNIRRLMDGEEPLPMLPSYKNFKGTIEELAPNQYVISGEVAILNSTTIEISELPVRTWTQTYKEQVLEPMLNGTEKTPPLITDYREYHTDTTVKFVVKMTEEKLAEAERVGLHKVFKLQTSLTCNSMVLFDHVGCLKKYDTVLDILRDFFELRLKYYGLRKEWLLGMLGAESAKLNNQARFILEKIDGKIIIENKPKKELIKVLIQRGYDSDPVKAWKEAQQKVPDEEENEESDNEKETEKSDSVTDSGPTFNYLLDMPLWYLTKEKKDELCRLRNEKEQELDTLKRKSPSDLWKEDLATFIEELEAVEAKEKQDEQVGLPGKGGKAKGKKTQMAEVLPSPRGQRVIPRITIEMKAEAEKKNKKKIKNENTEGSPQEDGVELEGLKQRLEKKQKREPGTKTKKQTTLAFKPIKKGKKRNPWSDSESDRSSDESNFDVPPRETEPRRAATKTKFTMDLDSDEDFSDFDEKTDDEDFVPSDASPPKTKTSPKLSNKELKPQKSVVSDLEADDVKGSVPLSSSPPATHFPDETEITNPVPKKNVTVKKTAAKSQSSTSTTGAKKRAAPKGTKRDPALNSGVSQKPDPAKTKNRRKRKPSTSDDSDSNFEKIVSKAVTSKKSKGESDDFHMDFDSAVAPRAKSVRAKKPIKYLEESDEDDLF

HL-60 = assay: Antiproliferative activity against human HL-60 cells; type: functional, cell-based
[21] = target: T1, DNA topoisomerase 2-alpha; assay: Inhibition of human DNA topoisomerase 2alpha using supercoiled pHot1 DNA as substrate incubated for 30 mins
Calf thymus DNA = assay: Displacement of methyl green from calf thymus DNA assessed as DNA intercalation measured after 24 hrs; type: nucleic-acid assay, Bos taurus

| IC50 (MDA-MB-231 [6]) | IC50 (HepG2 [7]) | inhibition [8] | SMILES | inhibition of growth at 100 µg/mL (HNO 97 cell line [1]) | inhibition of growth at 100 µg/mL (MDA-MB-231 [2]) | inhibition of growth at 100 µg/mL (HepG2 [3]) | inhibition of growth at 100 µg/mL (Huh-7) | inhibition of growth at 100 µg/mL (PC-3) | inhibition of growth at 100 µg/mL (A-375) | inhibition of growth at 100 µg/mL (MCF7) | inhibition of growth at 100 µg/mL (HCT-116) | inhibition of growth at 100 µg/mL (Caco-2) | inhibition of growth at 100 µg/mL (MG-63) | inhibition of growth at 100 µg/mL (NCI-H460) | inhibition of growth at 100 µg/mL (A549) | inhibition of growth at 100 µg/mL (BT-474) | inhibition at 100 ug/ml [4] | IC50 (HNO 97 cell line [5]) | Activity (HNO 97 cell line [9]) | Activity (HNO 97 cell line [10]) | also measured |
| --- | --- | --- | --- | --- | --- | --- | --- | --- | --- | --- | --- | --- | --- | --- | --- | --- | --- | --- | --- | --- | --- |
| 10 µg/mL (≈ 30.1 µM) | 9 µg/mL (≈ 27.1 µM) | 87.9% | NC1=Nc2nc3ccccc3n2C(c2ccc(Cl)cc2Cl)N1 (stereo unspecified) | 82.6% | 71.5% | 76.5% | 73.6% | 74.3% | 67.2% | 72.6% | 51.8% | 63.4% | 66.7% | 71.8% | 69% | 52.4% | 62.8% | 4 µg/mL (≈ 12 µM) | 46.4% | 27.94% | Activity (HNO 97 cell line [11]): 4.99%; Activity (HNO 97 cell line [12]): 1.42%; fold change (FC) [13]: 2.32; fold change (FC) [14]: 2.46; fold change (FC) [15]: 0.64; fold change (FC) [16]: 0.15; Activity (HNO 97 cell line [17]): 177.01%; Activity (HNO 97 cell line [18]): 46.33%; Activity (HNO 97 cell line [19]): 56.5% |
| 4 µg/mL (≈ 12 µM) | 4.8 µg/mL (≈ 14.4 µM) | 81.7% | NC1=Nc2nc3ccccc3n2C(c2ccc(Cl)c(Cl)c2)N1 (stereo unspecified) | 78% | 75% | 63.6% | 72.5% | 75.5% | 63% | 62% | 51.1% | 50.7% | 66.4% | 73.4% | 67.5% | 57.7% | 41.6% | 3 µg/mL (≈ 9.03 µM) | 58.07% | 4.99% | Activity (HNO 97 cell line [11]): 9.27%; Activity (HNO 97 cell line [12]): 0.9%; fold change (FC) [13]: 2.16; fold change (FC) [14]: 2.39; fold change (FC) [15]: 0.67; fold change (FC) [16]: 0.24; Activity (HNO 97 cell line [17]): 189.32%; Activity (HNO 97 cell line [18]): 51.93%; Activity (HNO 97 cell line [19]): 62.06% |
| – | – | – | O=C(N/N=C/c1ccncc1)c1cccc2c(=O)c3ccccc3[nH]c12 | – | – | – | – | – | – | – | – | – | – | – | – | – | – | – | – | – | IC50 [20]: 2260 nM; IC50 (HL-60): 480 nM |
| – | – | – | CCCc1nnc2c3ccccc3c(N/N=C/c3ccc([N+](=O)[O-])cc3)nn12 | – | – | – | – | – | – | – | – | – | – | – | – | – | – | – | – | – | IC50 [21]: 7.02 µM; IC50 (Calf thymus DNA): 26.2 µM |
| 8.6 µg/mL (≈ 15.8 µM) | 4.6 µg/mL (≈ 8.46 µM) | 86.4% | COc1cccc2c1C(=O)c1c(O)c3c(c(O)c1C2=O)C[C@@](O)(C(=O)CO)C[C@@H]3O[C@H]1C[C@H](N)[C@H](O)[C@H](C)O1 [DOXORUBICIN] | 80.3% | 78.2% | 59.3% | 74.8% | 68% | 64.1% | 69% | 71.3% | 80.8% | 69.9% | 73.6% | 49% | 44.7% | 70.4% | 9 µg/mL (≈ 16.6 µM) | – | – | – |
| – | – | – | O=C(NNC(=O)c1ccc(Nc2nc3ccccc3n3cnnc23)cc1)NC1CCCCC1 | – | – | – | – | – | – | – | – | – | – | – | – | – | – | – | – | – | IC50 (Calf thymus DNA): 25.3 µM |
